The test system of test [1] is SCFA/HCO3^− exchange. The test is described as follows: SCFA/HCO3^− exchange activity (isobutyrate-dependent HCO3^− secretion). Set-up: species or system rat. Particulars: 10 μM serosa; 25 mM isobutyrate lumen. On the procedure:
Stripped mucosal sheets were mounted into Ussing chambers (window area=0.3-0.5 cm^2, Physiologic Instruments, San Diego, Calif.). The mucosal side of tissue was bathed with an unbuffered HCO3^−-free Cl^− Ringer solution (see Table 2 for detailed composition) circulated by a gas lift with 100% O2 while the serosal side was bathed with buffered Cl^− Ringer solution (pH 7.4) that contained 25 mM HCO3^− and gassed with 5% CO2/95% O2. Each side contained 3-5 ml of solution and the temperature of the solution was adjusted to and maintained at 37° C. by heated water-jacketed reservoirs. […]
(§1) Two types of approaches were used in the measurement of colonic HCO3^− secretion, namely, measurement of lumen pH or pH stat titration of net alkalinization by colonic mucosa. […] The amount of the acid delivered per unit time per surface area was used to quantitate HCO3^− secretion by the mucosa. Measurements were recorded continuously and mean values for consecutive 5 or 10 min periods were averaged. The rate of HCO3^− secretion (JHCO3) is expressed as μEq/hr/cm^2. The short-circuit current (Isc) was measured in microamperes (μA) and converted into μEq/hr/cm^2. Tissue resistance (R, Ω cm^2) was calculated from Ohm's law.
SCFA/HCO3^− exchange activity was calculated as ΔJHCO3 (the difference between JHCO3 in the presence minus absence of luminal isobutyrate).

Test [2] relates to HCO3^− secretion by colonic mucosa. The test is described as follows: Basal HCO3^− secretion (pH stat JHCO3 and Isc, Ussing chamber). Details: species or system rat. On the procedure: Experiments were performed using non-fasting male Sprague-Dawley rats and C57BL/6 mice. Rats weighting 100-400 g were obtained from Charles River Laboratories. Mice lacking CaSR expression in intestinal epithelial cells (CaSR^−/−) and their CaSR^+/+ littermates were bred and maintained. CaSR^−/− mice were generated as previously described. Briefly, CaSR flox/flox mice were bred with transgenic mice expressing Cre Recombinase under the control of the villin 1 promoter and genotyped prior to all experiments after an approximate 10-12 generations. Mice were used at 5-10 weeks of age. Animals were fed and maintained on regular chow (Harlan) with free access to water before sacrifice. Animals were sacrificed with standard CO2 inhalation followed by cervical dislocation. The colons were isolated, cut open along the mesenteric border into a flat sheet, and flushed with ice-cold Ringer solutions. […]
as §1
Two adjacent sheets of mucosa from each colon were mounted into two Ussing chambers and bathed luminally with HCO3^−-free Cl^− Ringer solution and serosally with HCO3^−-containing Cl^− Ringer solution. After 15 to 30 min, when Isc and JHCO3 had stabilized, the CaSR agonist, R568 was added to the serosal or mucosal side of tissue, and changes in Isc and JHCO3 during the 15-30 min period ensuing after the addition of the agonist were determined.

The test system of test [3] is ENaC. The test is described as follows: ENaC activity as amiloride-sensitive bumetanide-insensitive Isc, weanling distal colon. Details: species or system rat. As to conditions: 10 μM; 2-3 week old rat distal colon. On the procedure: FIG. 17. The inhibitory effect of […] on ENaC was examined electrophysiologically by measuring amiloride-sensitive short-circuit current responses in the presence or absence of […]. Weanling infant distal colonic mucosa, which expresses highest activity of ENaC, is employed and mounted in Ussing chamber. FIGS. 19A-19C. […] Here, the activity of ENaC is measured as amiloride-sensitive bumetanide-insensitive Isc. […] FIGS. 20A-20C. […] The activity of ENaC was measured as amiloride-sensitive bumetanide-insensitive Isc. […] Secretory Cl current is mediated by apical CFTR. This Cl secretory Isc is sensitive to bumetanide, applied to the basolateral side of the epithelium. There, bumetanide inhibits Cl entry from blood into the cell; thus, in the presence of bumetanide, the secretory Cl current is eliminated. Absorptive Na current is mediated by apically located epithelial Na channel (ENaC). This latter current is particularly high in this weanling age and is sensitive to amiloride, when it is applied luminally.

Test [4] deals with colon mucosa of wild type mice. The experiment in a line: HCO3^− secretion in colon mucosa of wild type (CaSR^+/+) mice. Set-up: species or system mouse. On the procedure:
FIGS. 13A-13F. […] Colonic mucosa from wild type (CaSR^+/+) (A-C) and knockout (CaSR^-/-) mice (D-F) were isolated and treated, and activities of the three HCO3^- transporters assayed as in rats. Data are means±SEM of 4-6 experiments. *p<0.05 vs. control (1st bar). Experiments were performed using non-fasting male Sprague-Dawley rats and C57BL/6 mice. Rats weighting 100-400 g were obtained from Charles River Laboratories. Mice lacking CaSR expression in intestinal epithelial cells (CaSR^-/-) and their CaSR^+/+ littermates were bred and maintained. CaSR^-/- mice were generated as previously described. Briefly, CaSR flox/flox mice were bred with transgenic mice expressing Cre Recombinase under the control of the villin 1 promoter and genotyped prior to all experiments after an approximate 10-12 generations. Mice were used at 5-10 weeks of age. Animals were fed and maintained on regular chow (Harlan) with free access to water before sacrifice. Animals were sacrificed with standard CO2 inhalation followed by cervical dislocation. The colons were isolated, cut open along the mesenteric border into a flat sheet, and flushed with ice-cold Ringer solutions. Mucosa from the distal colon were carefully hand-stripped off of serosal, muscular and submucosal layers as described and a pair of adjacent mucosal segments were incised and mounted into Ussing chambers. In some experiments, stripped mucosa was incised longitudinally into two equal pieces in order to facilitate comparisons between control and treatment. […] To verify that the effects of […] occurred via the CaSR, additional studies on the effect of […] were performed in intestinal epithelium-specific CaSR knockout mice (FIG. 13). Intestinal epithelium-specific CaSR knockout mice were used together with their wild type littermates.

The structures appear in SMILES notation.

For `COc1cccc([C@@H](C)NCCCc2ccccc2Cl)c1.Cl` [R568, 2-Chloro-N-[(1R)-1-(3-methoxyphenyl)ethyl]-benzenepropanamine hydrochloride], the “isobutyrate-dependent HCO3^− secretion” value in test [1] is “significantly stimulated”. The “basal JHCO3 response” value in test [2] (10 μM, added to serosa) is reported as “significantly stimulated”. Besides, in test [2] (basal, absence 1.36±0.40, n=5, p>0.05), the “Isc in presence of R568” value was determined as 1.48±0.44 μEq/hr/cm^2. Besides, in test [2] (under normal Ca^2+o condition), the “effects of R568 compared with reduced Ca^2+o” value was “qualitatively similar, albeit with a slightly less pronounced effect”. The “bumetanide-insensitive amiloride-inhibitable ENaC-mediated basal Isc” value in test [3] is given as “inhibited”. Further, in test [4], the “Cl^−-dependent HCO3^− secretion” value is reported as “stimulated”, the “SCFA-dependent HCO3^− secretion” value is on record as “stimulated” and the “cAMP-dependent HCO3^− secretion” value is “inhibited”.
